# In patent US20230257715A1, “COMPOSITIONS AND METHODS FOR REGULATING ENTEROENDOCRINE CELL DIFFERENTIATION AND USES THEREOF” (The Children's Medical Center Corporation, priority 2020, published 2023):
# Where “and” joins values, the source holds several entries; their conditions need not be identical. Equal values may be shown once. Entries after “also recorded” stand apart in the source; their conditions may differ.
# Columns and labels:
# Assay type in all cases: cell-based
# human duodenal enteroids [1] = test: qPCR analysis of enteroendocrine and lineage markers in enteroids
# Source text: For differentiation, enteroids were passaged and grown in GM for two days, to allow for ISC expansion, after which the organoids were transitioned to tissue-specific differentiation media (DM) with additional small molecules added as described (TABLE 1A and TABLE 1B). Media was changed every two days, with Tubastatin A being removed after the second day of differentiation. Enteroids and rectoids were taken for analysis after 14 days.
# Total RNA was purified from individual wells using TRI®Reagent (Sigma) and the Direct-zol™ RNA kit (Zymo Research), following the manufacturer's protocol. RNA concentration was determined using a NanoDrop™ 1000 spectrophotometer (Life Technologies). RNA was treated with DNAse (Promega) and reverse transcribed using the High-Capacity cDNA Reverse Transcription Kit (Life Technologies). Gene expression analysis was then performed by Real Time quantitative PCR (qPCR) using a QuantStudio 6 Flex thermocycler (Life Technologies). Taqman primers from Life Technologies (TABLE 3) were used. 18S transcripts were used as the internal control and data were expressed using the 2^−ddCt method with Ct limit of 40. Fold change, unless otherwise stated, was compared to total RNA derived from adult whole mucosal tissue biopsies.
# human duodenal enteroids [2] = test: Immunofluorescence staining of CHGA, percentage of CHGA-positive enteroids
# Method: Immunofluorescence staining was performed as previously described with minor modifications (Dekkers J F, Alieva M, Wellens L M, et al. Nat Protoc 2019; 14:1l756-1771)^32. Organoids were grown in and isolated from Matrigel® as noted above. 1-3 wells from a 24-well plate were washed in 200 μL of 1× phosphate-buffered saline (PBS) and moved in suspension to a 1.5 mL microcentrifuge tube. Each tube was centrifuged at 800×g for 5 minutes at 4° C. to pellet organoids. PBS was aspirated, and organoids were fixed in 200 μL of 4% paraformaldehyde (PFA) for 20 minutes on ice, shaking. Each tube was centrifuged again as above, and PFA was aspirated. The organoids were then resuspended in 500 μL of 0.3% Triton-X in PBS and moved to a 48-well plate for the remaining steps. The organoids were permeabilized for 30 minutes at room temperature, shaking. Between each step, organoids were allowed to settle to the bottom of each well, the plate was angled, and the solution aspirated by careful pipetting. Organoids were then blocked with 5% bovine serum albumin in PBS for 1.5 hours at room temperature, shaking. This was followed by three five-minute washes in 500 μL of PBS at room temperature, shaking. […]
# (§1) This technique was adapted from a previously described method (Borten M A, Bajikar S S, Sasaki N, et al. Sci Rep 2018; 8:5319)^69. […] Any remaining clumped enteroids were manually separated prior to quantification. […]
# human duodenal enteroids [3] = test: Immunofluorescence staining of hormones (SST, 5HT, GIP, CCK) in enteroids; settings: 14-day protocol
# Method: Immunofluorescence staining was performed as previously described with minor modifications (Dekkers J F, Alieva M, Wellens L M, et al. Nat Protoc 2019; 14:1l756-1771)^32. Organoids were grown in and isolated from Matrigel® as noted above. 1-3 wells from a 24-well plate were washed in 200 μL of 1× phosphate-buffered saline (PBS) and moved in suspension to a 1.5 mL microcentrifuge tube. Each tube was centrifuged at 800×g for 5 minutes at 4° C. to pellet organoids. PBS was aspirated, and organoids were fixed in 200 μL of 4% paraformaldehyde (PFA) for 20 minutes on ice, shaking. Each tube was centrifuged again as above, and PFA was aspirated. The organoids were then resuspended in 500 μL of 0.3% Triton-X in PBS and moved to a 48-well plate for the remaining steps. The organoids were permeabilized for 30 minutes at room temperature, shaking. Between each step, organoids were allowed to settle to the bottom of each well, the plate was angled, and the solution aspirated by careful pipetting. Organoids were then blocked with 5% bovine serum albumin in PBS for 1.5 hours at room temperature, shaking. This was followed by three five-minute washes in 500 μL of PBS at room temperature, shaking.
# Each well was then incubated in 200 μL of primary antibodies diluted in 5% BSA/0.1% Trition-X in PBS at 4° C. overnight. This was followed by five washes in 500 μL of 0.1% Triton-X in PBS for 15 minutes each at room temperature, shaking. 200 μL of secondary antibodies, including Alexa Fluor 488- or 647-conjugated anti-mouse (Invitrogen, A-21202, or A-31571, 1:400), Alexa Fluor 488-conjugated anti-rat (Invitrogen, A-21208, 1:400), Alexa Fluor 488-conjugated anti-goat (Invitrogen, A-11055, 1:400) or Alexa Fluor 647-conjugated anti-rabbit (Invitrogen, A-31573, 1:400), diluted in 0.1% Triton-X in PBS, which were then added to each well and incubated for two hours at room temperature, shaking. Organoids were then washed as above, then moved to new 1.5 mL centrifuge tubes. During the last wash, 4′,6-diamidino-2-phenylindole (DAPI, Life Technologies, D1306) was added at a concentration of 1:1000 for nuclear staining. Organoids were then centrifuged at 1000×g for 5 minutes at 4° C. to assist in removal of as much PBS as possible. Slides were prepared by drawing three circles with a hydrophobic pen (Vector Laboratories, H-4000). Enteroids were then resuspended in 20 μL of Prolong Gold Antifade mountant (Life Technologies, P36930), and droplets placed within hydrophobic circles. […]
# as §1
# human duodenal enteroids [4] = test: Hormone ELISA (5HT, GIP) of enteroid conditioned media; settings: last two days of differentiation
# Method: Hormone quantification for GIP (MilliporeSigma, […]), GLP-1, PYY, and serotonin (Eagle Biosciences/DLD Diagnostika GmbH, SER39-KO1) and were performed using kits and following manufacturer's protocols. For these experiments, organoids were grown in 48-well plates to aid in concentrating the hormone of interest. Conditioned media was taken on day 14 of differentiation. For GIP quantification, Diprotin A (Tocris, 6019, 100 μM), a dipeptidyl peptidase 4 inhibitor, was added daily to the media for the last two days of differentiation to prevent GIP and GLP-1 degradation. For hormone induction studies, forskolin (Fsk) (10 μM) was added to fresh media 24-hours prior to conditioned media being taken. As an additional control, differentiation media not exposed to cells was also evaluated. This value was then subtracted from each experimental sample.
structure (smiles),measurement,setting,value
"CCn1cc(C(=O)O)c(=O)c2c(N)c(F)c(NC3CCCCC3)cc21 [AS, AS1842856]",expression of the enterocyte marker ALP1 (qPCR),human duodenal enteroids [1]; compared to G14 and G2D12,reduced expression
same,other intestinal lineage marker mRNA expression (qPCR),human duodenal enteroids [1]; compared to G14 and G2D12,"increased expression of other secretory and ISC markers, including ATOH1, MUC2, LYZ, and LGR5"
same,EE marker mRNA expression (qPCR),"human duodenal enteroids [1]; compared to G14 and G2D12, referenced to whole mucosa, normalized to 18S","induced similar mRNA expression trends as Rim and SP (RSP); also recorded: upregulation of multiple EE markers (CHGA, PAX4, PDX1, NEUROD1, NEUROG3, SST and GIP), many to levels approximating whole mucosa"
same,"EE marker mRNA expression, direct comparison of protocols (qPCR)","human duodenal enteroids [1]; compared to RSP / AS alone, FIG. 5.1A and 5A","higher expression of CHGA, NEUROD1, NEUROG3, and SST"
same,"MUC2, ALP1 and LGR5 mRNA expression compared to those that received RSP alone","human duodenal enteroids [1]; qPCR, FIG. 7.1A",decreased expression of MUC2 and ALP1 and increased expression of LGR5
same,"CHGA expression by immunofluorescence staining (whole well, qualitative)",human duodenal enteroids [2]; FIG. 5B legend,more
same,percentage of enteroids containing CHGA+ cells (immunofluorescence),"human duodenal enteroids [2]; enteroids, 14-day protocol",85% and 82%
same,percentage of CCK-positive enteroids,human duodenal enteroids [3],4.5%
same,percentage of GIP-positive enteroids,human duodenal enteroids [3],53%
same,percentage of enteroids containing SST-positive cells,human duodenal enteroids [3],42%
same,percentage of enteroids with positive 5HT staining,human duodenal enteroids [3],75%
same,5HT secretion (ELISA of conditioned media),human duodenal enteroids [4],promoted serotonin (5HT) production and secretion; also recorded: higher levels of 5HT secretion than all other conditions
same,GIP secretion (ELISA of conditioned media),human duodenal enteroids [4],no secretion of GIP
